Tests used:
MelBSt = MelBSt (Salmonella enterica, UniProt P30878); assay: Trp to dansyl FRET; assay type: binding; settings: DDM or MTG-E13 micelles; active site
MelBEC = MelBEC (Escherichia coli, UniProt P02921); assay: Trp to dansyl FRET; assay type: binding; settings: MTG-E13 micelles (response lost in DDM); active site
β2AR = β2AR (Homo sapiens, UniProt P07550); assay: radioligand binding assay; settings: labelled compound; antagonist; DDM or MTG micelles at CMC+0.2 wt%
Sequence of β2AR (P07550 whole entry): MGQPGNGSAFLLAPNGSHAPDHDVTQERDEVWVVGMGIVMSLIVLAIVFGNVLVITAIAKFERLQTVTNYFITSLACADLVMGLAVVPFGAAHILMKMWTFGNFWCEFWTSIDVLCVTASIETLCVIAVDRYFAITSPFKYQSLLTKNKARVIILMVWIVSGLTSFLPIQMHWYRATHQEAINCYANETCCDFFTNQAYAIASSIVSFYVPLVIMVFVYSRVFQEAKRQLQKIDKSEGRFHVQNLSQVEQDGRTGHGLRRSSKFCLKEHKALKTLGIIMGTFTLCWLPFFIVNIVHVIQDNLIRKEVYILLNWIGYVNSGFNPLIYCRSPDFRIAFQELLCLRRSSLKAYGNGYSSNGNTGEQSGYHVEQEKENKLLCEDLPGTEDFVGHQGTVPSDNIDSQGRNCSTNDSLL

Sequence of MelBEC (P02921 2-473): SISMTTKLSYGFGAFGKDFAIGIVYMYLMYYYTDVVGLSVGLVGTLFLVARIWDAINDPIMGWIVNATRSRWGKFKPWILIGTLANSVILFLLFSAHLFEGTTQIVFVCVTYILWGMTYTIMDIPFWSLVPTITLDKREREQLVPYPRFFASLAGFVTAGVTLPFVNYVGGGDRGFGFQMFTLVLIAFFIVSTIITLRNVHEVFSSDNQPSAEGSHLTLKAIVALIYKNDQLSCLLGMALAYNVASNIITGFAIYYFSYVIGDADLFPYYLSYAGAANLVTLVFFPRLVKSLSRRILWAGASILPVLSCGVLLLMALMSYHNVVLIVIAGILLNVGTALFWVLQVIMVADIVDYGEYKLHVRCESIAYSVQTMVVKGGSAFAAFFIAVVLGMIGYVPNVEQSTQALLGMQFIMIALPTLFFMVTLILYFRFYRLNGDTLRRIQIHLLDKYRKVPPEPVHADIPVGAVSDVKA
Sequence of MelBSt (P30878 whole entry): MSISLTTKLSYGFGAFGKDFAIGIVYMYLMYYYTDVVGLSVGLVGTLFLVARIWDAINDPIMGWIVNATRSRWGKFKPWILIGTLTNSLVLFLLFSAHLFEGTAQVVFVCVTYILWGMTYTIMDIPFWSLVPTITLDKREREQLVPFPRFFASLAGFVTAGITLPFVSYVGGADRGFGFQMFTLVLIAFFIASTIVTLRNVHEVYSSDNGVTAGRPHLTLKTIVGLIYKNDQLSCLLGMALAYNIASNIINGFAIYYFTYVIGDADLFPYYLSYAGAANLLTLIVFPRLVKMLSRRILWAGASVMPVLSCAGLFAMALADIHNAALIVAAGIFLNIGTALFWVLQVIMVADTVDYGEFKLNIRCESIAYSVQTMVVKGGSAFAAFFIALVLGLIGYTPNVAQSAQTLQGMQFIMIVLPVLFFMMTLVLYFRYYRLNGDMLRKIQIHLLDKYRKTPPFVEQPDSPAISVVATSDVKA

SMILES | Trp to dansyl FRET (MelBSt) | Trp to dansyl FRET (MelBEC) | radioligand binding assay (β2AR)
CN(C)c1cccc2c(S(=O)(=O)NCCS[C@@H]3O[C@H](CO)[C@H](O)[C@H](O)[C@H]3O)cccc12 [D^2G, 2’-(N-dansyl)aminoalkyl-1-thio-β-D-galactopyranoside] | DDM-solubilized MelBSt showed initial increase and subsequent decrease in the fluorescence signal | MTG-E13, was effective at preserving the functionality of this less stable MelB homologue | 
CCCc1ccccc1OCC(O)CNC(C)C (stereo not drawn) [[^3H]-dihydroalprenolol] |  |  | the MTGs led to [^3H]-DHA-binding capability of the receptor comparable to DDM
